These results are taken from patent US20220193209A1, “COMPOSITIONS AND METHODS FOR REACTIVATING LATENT IMMUNODEFICIENCY VIRUS AND/OR TREATING IMMUNODEFICIENCY VIRUS INFECTION” (The J. David Gladstone institutes, a testamentary trust …, priority 2019, published 2022).

One series deals with J-Lat cells. Kind of series: Cell viability of J-Lat cells by flow cytometry. It counts as cell-based. As to the method: FIG. 3, Panel A, depicts results of treatment of a J-Lat cell line 5A8 with increasing concentrations (1-10000 nM) of AS1842856 for 24, 48 and 72 h. HIV-GFP mRNA reactivation was assessed by RT-qPCR and normalized to RPL13A mRNA. Data represent average SD of three independent experiments. p-value relative to the control at each time point. FIG. 3, Panel B, depicts cell viability assessed by flow cytometry at 72 h of the same experiment as in A. Cell viability was measured by gating on both the live population at the forward scatter (FSC) and side scatter (SSC) plot and then the viable cells after staining with the viability dye. FIG. 3, Panel C, depicts results of treatment of J-Lat cell lines A2 and A72 with increasing concentrations of AS1842856 for 24, 48 and 72 h. HIV-GFP reactivation (bars) and cell viability (dots) were analyzed by FACS. HIV-GFP reactivation is reported as a percentage of GFP-expressing cells (% GFP+ cells). Data represent average f SD of at least three independent experiments. FIG. 3, Panel D, depicts the same experiments as in FIG. 3, Panel C, but performed in different J-Lat cell lines 5A8, 6.3, 11.1 and 15.4. Data represent average f SD of at least three independent experiments. 10 ng/mL TNFα was used as control. FIG. 3 Panel E depicts results of treatment of J-Lat cell lines 5A8, 6.3, 11.1 and 15.4 for 72 h with increasing concentrations of both AS1842856 (Y-axis) and TNFα (X-axis) alone or in combination and analyzed by FACS. Calculation of synergy for drug combinations using the Bliss independence model applied to the HIV-GFP reactivation measured as a percentage of GFP-expressing cells (% GFP+ cells).
FIG. 10, Panels A-F depict results of a J-Lat cell line 5A8 treated with different concentrations of inhibitors. FIG. 10, Panel A, depicts results for a J-Lat cell line A58 that was treated with increasing concentrations of A-92 (GCN2 inhibitor) in combination with 1000 nM AS1842856 (72 h) or 10 ng/mL TNFα (24 h). HIV-GFP reactivation was analyzed by FACS and relativized to the control condition. Histogram plots of percent live cells for each drug treatment are shown. FIG. 10, Panel B, depicts the same experiment as in FIG. 10, Panel A, but cells were treated with increasing concentrations of PKR inhibitor (PKRi). Histogram plots representing viability are also shown. Data are represented by mean±SD of three different […]. […] FIG. 10, Panel D, depicts a J-Lat cell line A58 that was treated with increasing concentrations of Ionomycin (0.01, 0.1, 0.5, 1 μM) for 24, 48 and 72 hr. HIV-GFP reactivation and cell viability were analyzed by FACS. FIG. 10, Panel E, depicts a J-Lat cell line 5A8 that was treated for 72 h with increasing concentrations of both Fenretinide (Y-axis) and Ionomycin (X-axis) alone or in combination and analyzed by FACS. HIV-GFP reactivation is reported as a percentage of GFP-expressing cells (% GFP+ cells). FIG. 10, Panel F, depicts a J-Lat cell line 5A8 that was also treated for 72 h with increasing concentrations of both Thapsigargin (Y-axis) and Cyclosporin A (X-axis) alone or in combination and analyzed by FACS. HIV-GFP reactivation is again reported as a percentage of GFP-expressing cells (% GFP+ cells).

In series [1] the test system is HIV latency establishment (HIVGKO) in primary CD4+ T cells. In words: HIVGKO latency establishment in primary resting CD4+ T cells. The series is classed as cell-based, HIV-1. As to conditions: increasing doses, 72 hours.

As to `CCn1cc(C(=O)O)c(=O)c2c(N)c(F)c(NC3CCCCC3)cc21` [AS1842856, 5-amino-7-(cyclohexylamino)-1-ethyl-6-fluoro-4-oxo-1,4-dihydro-quinoline-3-carboxylic acid], the cell viability entry in the series with J-Lat cells (J-Lat 5A8, 72 h) is given as “No major effects”; with J-Lat cells (J-Lat A2 and A72) it was “no effect”. Also, in the series on J-Lat cells (four J-Lat clonal cell lines), the viability result is recorded as “unaffected”. Further, in series [1], the “productive infection and establishment of latency” value is “promoted productive infection and decreased the establishment of latency”.
